The values below come from patent US20230024384A1, “C[…] COMPOUND FOR TREATING FRAGILE X SYNDROME OR RELATED DEVELOPMENTAL DISORDERS” (NEUROVENTI, priority 2020, published 2023).

Holding throughout (assay type): in vivo, mouse
For experiment [1], the system named is animal model treated with apomorphine in wild-type mice. Put plainly: pre-wave suppression test in apomorphine-treated wild-type mice. Conditions: lisuride intraperitoneally after apomorphine, FIG. 5. The procedure: (§1) Pre-pulse suppression (%)=100−[(startle response to pre-stimulus+stimulus)/(start-up response to stimulus)]*100 [Equation 1]
(§2) Startle response was confirmed in an animal model treated with apomorphine or MK-801 in wild-type mice. […] Thereafter, sensorimotor gating was evaluated through a pre-wave suppression test (converted using Equation 1 above).

The test system of experiment [2] is Fmr1-deficient animal model (fragile X syndrome). Briefly: three-chamber test in Fmr1-deficient animal model. Conditions: Fmr1 KO mice, lisuride intraperitoneally 50 ug/kg, test 30 minutes after administration, FIG. 1. The protocol: (§3) Purchased a 5-week-old Fmr1 knockout mouse (Jackson Laboratory, USA) weighing about 22 g to 24 g, and acclimatized to an environment with a temperature of 23±2° C. and humidity of 55±10% and a light-dark cycle of 12 hours while allowing them to freely consume water and feed (Experimental Animal Center, Konkuk University). As experimental animals, wild-type (WT) with normal FMRP expression and male KO mice lacking FMRP (fragile X mental retardation protein) expression (fragile X syndrome; FXS) were used. Dosing and experiments were performed according to the age of the week. Dosing was performed at the same time. Behavioral experiments were conducted 30 minutes after administration. […] Meanwhile, 0.25 (v/v) % DMSO was intraperitoneally administered to the control group.
If the animal model spent more time with a novel mouse rather than a familiar mouse, it is judged to be social. The test animal was exposed to the stimulus mouse for 10 minutes, and to a new stimulus mouse (novel) for another 10 minutes. In this case, the old mouse is called familiar and the new mouse is called a novel mouse. The time the test mouse explored each stimulus mouse was measured and expressed as %. As a result of the experiment, it was confirmed that the wild type spent more time with the novel mouse than the familiar mouse, indicating normal sociability. […]

Experiment [3] has the same test system. Put plainly: pre-pulse (pre-wave) suppression test in Fmr1-deficient animal model. Conditions: Fmr1 KO mice, lisuride intraperitoneally, FIG. 3. The procedure: as §3
The startle response was confirmed using an Fmr1-deficient animal model. […] Thereafter, sensorimotor gating was evaluated through a pre-wave suppression test (converted using Equation 1 below).
as §1

For experiment [4] the test system is unchanged. Briefly: home-cage test in Fmr1-deficient animal model. Conditions: Fmr1 KO mice, lisuride once daily for 5 days, sniffing measured for 15 minutes, FIG. 2. The procedure: as §3
A home-cage test evaluates sociability in the breeding cage removing the possible confounders of stress due to abrupt changes in the environment. After raising the group of animals to be tested together, a wire cage was placed inside the home cage and allowed the animals to acclimatize for 30 minutes. A stimulus mouse was placed in a wire cage and the duration of sniffing by the subject mice to the wire cage was measured for 15 minutes.

For experiment [5], the system named is animal model treated with MK-801 in wild-type mice. Briefly: pre-wave suppression test in MK-801-treated wild-type mice. As to conditions: lisuride intraperitoneally after MK-801, FIG. 6. The protocol:
as §1, §2

On to `CCN(CC)C(=O)N[C@H]1C=C2c3cccc4[nH]cc(c34)C[C@H]2N(C)C1` [lisuride, 1,1-Diethyl-3-(7-methyl-4,6,6a,7,8,9-hexahydro-indolo [4,3-fg]quinolin-9-yl)-urea], for which the “pre-pulse suppression (sensorimotor gating)” value in experiment [1], in experiment [3] and in experiment [5] was “pre-pulse suppression was restored” in each case. In addition, the “sociability: time spent with novel mouse versus familiar mouse” value in experiment [2] is given as “more time was spent with the novel mouse than with the familiar mouse”. Moreover, in experiment [4], the “sniffing time to wire cage with stimulus mouse (sociability)” value is on record as “sniffing time increased again”.
